In patent US6552089B1, “Method of treating or preventing alopecia” (priority 1992, dated 2003):
Where “and” joins values, the source holds several entries; their conditions need not be identical. Equal entries are not always repeated. Where two headings read alike, the source gives them in different places.

Legend:
[1] = system: arabinoside-C induced alopecia; assay: arabinoside-C induced alopecia in 8 day old rats, tellurate given i.p. (method of Hussein et al.); type: in vivo, Sprauge Dawley rats; conditions: for effect on alopecia of a tellurate regimen / No. of subjects with alopecia grade 0 (no detectable alopecia) / No. of subjects with alopecia grade 1+ (mild, hair loss <50%) / No. of subjects with alopecia grade 2+ (moderately severe, hair loss >50%) / No. of subjects with alopecia grade 3+ (total or virtually total, hair loss >79%): rats; for No. of subjects with alopecia grade 0 (no detectable alopecia) / No. of subjects with alopecia grade 1+ (mild, hair loss <50%) / No. of subjects with alopecia grade 2+ (moderately severe, hair loss >50%) / No. of subjects with alopecia grade 3+ (total or virtually total, hair loss >79%): day 9
Protocol: 28, 1990, pp. 1564-1566. […] The cycle of treatment lasted 7 days. […] A second experiment was carried out using the same procedure which is outlined above.

[2] = system: arabinoside-C induced alopecia; assay: topical application in glycerin to back of arabinoside-C injected rats; type: in vivo; set-up: key to Grade of Alopecia: 0 = no alopecia; 1 = less than 20% alopecia; 2 = less than 50% alopecia; 3 = more than 50% alopecia; 4 = total alopecia; conditions: for Grade of Alopecia: arabinoside-C 25 mg/kg 2 h after each treatment
Protocol: A stock composition of 1 mg. of ammonium trichloro (O,O′-dioxoethylene) tellurate in 1 ml. of glycerin was prepared. The stock composition was diluted with glycerin to give the following concentrations per ml. so that the stated dose could be applied topically by application of 1 ml. of solution. The solution was applied to the entire back surface of rats once daily for a period of 7 days. Two hours after each treatment the rats were injected with 25 mg/kg of arabinoside-C once daily. Control rats were treated with a glycerin and injected with arabinoside-C.

[3] = system: alopecia under carboplatinum/etoposide chemotherapy; assay: phase II chemotherapy trial, alopecia score; type: in vivo, patients; conditions: Group II: tellurate 3 mg/m^2 three times a week plus carboplatinum/etoposide chemotherapy; 12 weeks after chemotherapy
Protocol: A phase II chemotherapy trial was carried out in patients having unresectable and metastatic non-small cell lung tumors. The chemotherapy was based on carboplatinum 300.0 mg/m^2/IV daily and etoposide 200.0 mg/m^2 on day 3, 5 and 7 for a total of 12 weeks of chemotherapy which was given to group I. In addition to the same chemotherapy, ammonium trichloro (O,O′-dioxoethylene)tellurate was given to Group II at a dose of 3 mg/m^2 three times a week starting two weeks before the chemotherapy and continued for 12 weeks after the chemotherapy. The alopecia of both groups was observed 12 weeks after the chemotherapy and was as follows: […]

[4] = system: alopecia which is induced by cyclophosphamide; conditions: rats
[5] = tellurate 0.5 mg/Kg IP daily ×7 days with arabinoside-C 25 mg/kg i.p., first experiment
[6] = tellurate 0.5 mg/Kg IP daily ×7 days with arabinoside-C 50 mg/kg i.p., first experiment
[7] = tellurate 0.5 mg/Kg IP every other day ×7 days with arabinoside-C 25 mg/kg i.p., first experiment
[8] = tellurate 0.5 mg/Kg IP every other day ×7 days with arabinoside-C 50 mg/kg i.p., first experiment
[9] = tellurate 0.5 mg/Kg IP every other day ×7 days with arabinoside-C 50 mg/kg i.p., second experiment
[10] = tellurate 0.5 mg/Kg IP daily ×7 days with cyclophosphamide 20 mg/kg i.p. ×7 days, listed as ammonium trichloro (0,0′-dioxoethylene) tellurate
[11] = arabinoside-C 25 mg/kg daily ×7 days alone, first experiment
[12] = arabinoside-C 50 mg/kg i.p. ×7 days alone, first experiment
[13] = cyclophosphamide 20 mg/kg i.p. ×7 days alone

For `Cl[TeH]1(Cl)(Cl)OCCO1.N` [ammonium-trichloro (O,O′-dioxoethylene) tellurate], the “effect on alopecia of a tellurate regimen” value ([1]; given daily) was “almost completely avoids alopecia”, the “effect on alopecia of a tellurate regimen” value ([1]; given every other day) was “provides some protection from alopecia” and the “histological examination of the skin” value ([1]; subjects treated with arabinoside-C and tellurate) was “no hair loss or reduced hair loss”. The “No. of subjects with alopecia grade 0 (no detectable alopecia)” value (from here on “No. of subjects … (no detectable alopecia)”) [1, 5] was 0, the “No. of subjects with alopecia grade 1+ (mild, hair loss <50%)” value (shortened to “No. of subjects … (mild, hair loss <50%)”) [1, 5] was 4 and the “No. of subjects with alopecia grade 2+ (moderately severe, hair loss >50%)” value [1, 5] was 0. For the same molecule, the “No. of subjects with alopecia grade 3+ (total or virtually total, hair loss >79%)” value [1, 5] was 0, the “No. of subjects … (no detectable alopecia)” value ([1]; tellurate 0.5 mg/Kg IP daily ×7 days with arabinoside-C 25 mg/kg i.p., second experiment) was 6 and the “No. of subjects … (no detectable alopecia)” value [1, 6] was 0. For the same molecule, the “No. of subjects … (mild, hair loss <50%)” value [1, 6] was 3, the “No. of subjects with alopecia grade 2+ (moderately severe, hair loss >50%)” value [1, 6] was 1 and the “No. of subjects with alopecia grade 3+ (total or virtually total, hair loss >79%)” value [1, 6] was 0. For the same molecule, the “No. of subjects … (no detectable alopecia)” value ([1]; tellurate 0.5 mg/Kg IP daily ×7 days with arabinoside-C 50 mg/kg i.p., second experiment) was 6, the “No. of subjects … (no detectable alopecia)” value [1, 7] was 0 and the “No. of subjects … (mild, hair loss <50%)” value [1, 7] was 4. For the same molecule, the “No. of subjects with alopecia grade 2+ (moderately severe, hair loss >50%)” value [1, 7] was 0, the “No. of subjects with alopecia grade 3+ (total or virtually total, hair loss >79%)” value [1, 7] was 0 and the “No. of subjects … (no detectable alopecia)” value ([1]; tellurate 0.5 mg/Kg IP every other day ×7 days with arabinoside-C 25 mg/kg i.p., second experiment) was 6. The “No. of subjects … (no detectable alopecia)” value [1, 8] was 0, the “No. of subjects … (mild, hair loss <50%)” value [1, 8] was 1 and the “No. of subjects with alopecia grade 2+ (moderately severe, hair loss >50%)” value [1, 8] was 3. For the same molecule, the “No. of subjects with alopecia grade 3+ (total or virtually total, hair loss >79%)” value [1, 8] was 0, the “No. of subjects … (mild, hair loss <50%)” value [1, 9] was 1 and the “No. of subjects with alopecia grade 2+ (moderately severe, hair loss >50%)” value [1, 9] was 2. For the same molecule, the “No. of subjects with alopecia grade 3+ (total or virtually total, hair loss >79%)” value [1, 9] was 3, the “Grade of Alopecia” value ([2]; 10 ug/rat topical in glycerin once daily 7 days) was 3 (3 = more than 50% alopecia) and the “Grade of Alopecia” value ([2]; 20 ug/rat topical in glycerin once daily 7 days) was 1 (1 = less than 20% alopecia). For the same molecule, the “rats that showed 0% alopecia” value ([2]; 50 ug topical, arabinoside-C 25 mg/kg) was 100%, the “Grade of Alopecia” value ([2]; 50 ug/rat topical in glycerin once daily 7 days) was 0 and the “Grade of Alopecia” value ([2]; 100 ug/rat topical in glycerin once daily 7 days) was 2 (2 = less than 50% alopecia). The “Grade of Alopecia” value ([2]; 200 ug/rat topical in glycerin once daily 7 days) was 3 (3 = more than 50% alopecia), the “dose response of topical effect on alopecia” value ([2]; 10-200 ug/rat topical, arabinoside-C 25 mg/kg) was “A dose response effect was observed” and the “number with alopecia score 0” value [3] was 122. The “number with alopecia score I (casual alopecia)” value [3] was 26, the “number with alopecia score II (>50% alopecia)” value [3] was 40 and the “number with alopecia score III (<50% alopecia)” value [3] was 12. For the same molecule, the “number with alopecia score IV (total alopecia)” value [3] was 0, the “percentage with alopecia score 0” value [3] was 61.00% and the “percentage with alopecia score I (casual alopecia)” value [3] was 13.00%. For the same molecule, the “percentage with alopecia score II (>50% alopecia)” value [3] was 20.00%, the “percentage with alopecia score III (<50% alopecia)” value [3] was 6.00% and the “percentage with alopecia score IV (total alopecia)” value [3] was 0.00%. The “protection against cyclophosphamide induced alopecia” value ([4]; 0.5 mg/kg/i.p. in conjunction with cyclophosphamide) was “mild protection”, the “No. of subjects … (mild, hair loss <50%)” value ([4]; tellurate 0.5 mg/Kg IP daily ×7 days with cyclophosphamide 20 mg/kg i.p. ×7 days) was 4 and the “No. of subjects … (no detectable alopecia)” value [4, 10] was 2. For the same molecule, the “No. of subjects … (mild, hair loss <50%)” value [4, 10] was 2 and the “No. of subjects with alopecia grade 2+ (moderately severe, hair loss >50%)” value [4, 10] was 1.

`Nc1ccn([C@@H]2O[C@H](CO)[C@@H](O)[C@@H]2O)c(=O)n1` [arabinoside-C, reference compound] was tested, and the “No. of subjects … (no detectable alopecia)” value [1, 11] was 0, the “No. of subjects … (mild, hair loss <50%)” value [1, 11] was 0 and the “No. of subjects with alopecia grade 2+ (moderately severe, hair loss >50%)” value [1, 11] was 0. For the same molecule, the “No. of subjects with alopecia grade 3+ (total or virtually total, hair loss >79%)” value [1, 11] was 3, the “No. of subjects with alopecia grade 3+ (total or virtually total, hair loss >79%)” value ([1]; arabinoside-C 25 mg/kg i.p. ×7 days alone, second experiment) was 8 and the “No. of subjects … (no detectable alopecia)” value [1, 12] was 0. The “No. of subjects … (mild, hair loss <50%)” value [1, 12] was 0, the “No. of subjects with alopecia grade 2+ (moderately severe, hair loss >50%)” value [1, 12] was 0 and the “No. of subjects with alopecia grade 3+ (total or virtually total, hair loss >79%)” value [1, 12] was 4. For the same molecule, the “No. of subjects with alopecia grade 3+ (total or virtually total, hair loss >79%)” value ([1]; arabinoside-C 50 mg/kg i.p. ×7 days alone, second experiment) was 8, the “histological examination of the skin” value ([1]; arabinoside-C treated subjects) was “almost complete loss of hair follicles” and the alopecia ([2]; all control animals: glycerin topical, arabinoside-C 25 mg/kg once daily) was 100%.

For `O=P1(N(CCCl)CCCl)NCCCO1` (centres unmarked) [cyclophosphamide, reference compound], the “No. of subjects … (no detectable alopecia)” value [4, 13] was 1, the “No. of subjects … (mild, hair loss <50%)” value [4, 13] was 3 and 2 and the “No. of subjects … (mild, hair loss <50%)” value ([4]; cyclophosphamide 20 mg/kg i.p. ×7 days alone, listed as cyclosphosphamide) was 10.
